Experimental data from BigSolDB 2.1.

Settings: in isobutyl acetate

O=C(O)c1ccc(C(=O)O)cc1
solubility (mole fraction) (305.15 K): 2.38e-05
solubility (mole fraction) (308.15 K): 2.57e-05
solubility (mole fraction) (313.15 K): 3.22e-05
solubility (mole fraction) (318.15 K): 3.41e-05
solubility (mole fraction) (323.15 K): 3.86e-05
solubility (mole fraction) (328.15 K): 5.78e-05
solubility (mole fraction) (333.15 K): 7.07e-05
solubility (mole fraction) (338.15 K): 8.25e-05
solubility (mole fraction) (343.15 K): 8.91e-05
solubility (mole fraction) (348.15 K): 0.000104

O=C(O)c1ccccc1C(=O)O
solubility (mole fraction) (300.68 K): 0.0011
solubility (mole fraction) (302.37 K): 0.0012
solubility (mole fraction) (304.42 K): 0.0012
solubility (mole fraction) (309.58 K): 0.0016
solubility (mole fraction) (312.72 K): 0.0022
solubility (mole fraction) (317.36 K): 0.0026
solubility (mole fraction) (326.85 K): 0.0032
solubility (mole fraction) (331.86 K): 0.0037
solubility (mole fraction) (335.27 K): 0.005
solubility (mole fraction) (340.04 K): 0.0062
solubility (mole fraction) (342.69 K): 0.0077
solubility (mole fraction) (348.7 K): 0.0092

O=C(O)c1cccc(C(=O)O)c1
solubility (mole fraction) (308.15 K): 0.000352
solubility (mole fraction) (313.15 K): 0.000388
solubility (mole fraction) (318.15 K): 0.000438
solubility (mole fraction) (323.15 K): 0.000507
solubility (mole fraction) (328.15 K): 0.000691
solubility (mole fraction) (333.15 K): 0.000917
solubility (mole fraction) (338.15 K): 0.0013
solubility (mole fraction) (343.15 K): 0.00166
solubility (mole fraction) (348.15 K): 0.00201
solubility (mole fraction) (353.15 K): 0.00221

O=C(O)c1ccccc1
solubility (mole fraction) (299.73 K): 0.14
solubility (mole fraction) (302.46 K): 0.149
solubility (mole fraction) (307.34 K): 0.178
solubility (mole fraction) (313.61 K): 0.208
solubility (mole fraction) (322.93 K): 0.254
solubility (mole fraction) (328.98 K): 0.293
solubility (mole fraction) (332.24 K): 0.311
solubility (mole fraction) (334.34 K): 0.325
solubility (mole fraction) (335.58 K): 0.337
solubility (mole fraction) (336.03 K): 0.338
solubility (mole fraction) (337.33 K): 0.349
solubility (mole fraction) (337.67 K): 0.351
solubility (mole fraction) (338.76 K): 0.358
solubility (mole fraction) (339.37 K): 0.362
solubility (mole fraction) (339.86 K): 0.369
solubility (mole fraction) (341.48 K): 0.379
solubility (mole fraction) (342.69 K): 0.39
solubility (mole fraction) (343.67 K): 0.399

Cc1ccc(C(=O)O)cc1
solubility (mole fraction) (300.19 K): 0.0328
solubility (mole fraction) (303.04 K): 0.0338
solubility (mole fraction) (306.43 K): 0.0356
solubility (mole fraction) (310.28 K): 0.0421
solubility (mole fraction) (312.7 K): 0.0434
solubility (mole fraction) (315.36 K): 0.0475
solubility (mole fraction) (319.97 K): 0.0525
solubility (mole fraction) (323.16 K): 0.0573
solubility (mole fraction) (324.84 K): 0.0612
solubility (mole fraction) (325.76 K): 0.0653
solubility (mole fraction) (329.67 K): 0.0692
solubility (mole fraction) (332.48 K): 0.0735
solubility (mole fraction) (333.91 K): 0.0774
solubility (mole fraction) (335.96 K): 0.0813
solubility (mole fraction) (337.49 K): 0.0848
solubility (mole fraction) (339.46 K): 0.0885
solubility (mole fraction) (341.07 K): 0.0918
solubility (mole fraction) (342.68 K): 0.0954
solubility (mole fraction) (344.69 K): 0.0994
solubility (mole fraction) (345.82 K): 0.103
solubility (mole fraction) (347.26 K): 0.107
solubility (mole fraction) (348.41 K): 0.11
